# Test results from patent US6462086B1, “Non-malignant disease treatment with Ras antagonists” (Ramot University Authority for Applied Research and …, priority 1999, dated 2002).
# Entries after “also recorded” stand apart in the source; their conditions may differ.
# Legend:
# MRL/lpr mice [1] = assay: Open field test in MRL mice; assay type: in vivo, mouse; conditions: 20 minutes
# Method: Saline-treated and FTS-treated MRL/lpr and saline-treated MRL/++ mice (n=5), were tested for spatial behavior in a novel environment in an open field. The apparatus comprised of a circular pool (120 cm diameter by 50 cm high) placed in a lighted room. The test was conducted during the light phase of day-night cycle. The mice were brought to the experimental room 1 hour before testing. Each mouse was removed gently from its cage, placed individually at the center of the field, and videotaped with a camcorder for 20 minutes. At the end of each session the pool was cleaned with paper towels moistened with ammonium glass cleaner to remove urinary trails. The frequency and duration of progression or stopping in the open field was analyzed during playback of the video records by software custom-written by Dr. David Eilam (Life Sciences Department, Tel-Aviv University). Total distance traveled, locomotion time, speed of moving, spatial distribution of explorations and latency for establishing a home base, and duration of staying there, were extracted.
# Ras = Ras in membranes (P100) and cytosol (S100) of cultured spleen lymphocytes (Western immunoblot); assay type: cell-based, mouse; conditions: for amount of insoluble (P100) Ras: 24 h, relative to FTS 0 μM = 100
# Method: Spleen lymphocytes, obtained from six mice as described above, were pooled and plated in 10 cm dishes containing RPMI/5% FCS at a density of 2.3×10^7 cells per plate. […] Twenty-four hours later the cells were collected (pools of 2 plates for each treatment) and washed in PBS. The cells were then homogenized in homogenization buffer containing protease inhibitors. Ras was determined in total cell membranes (P100) and cytosol (S100) obtained by centrifugation ([…], 30 min, 4° C.). Briefly, 25 μg of total cellular proteins were separated by 12.5% sodium dodecylsulfate polyacrylamide gel electrophoresis (SDS-PAGE) and blotted onto nitrocellulose membranes. Immunoblotting with pan-Ras, enhanced chemiluminescense assays (ECL) and densitometric analysis were then performed as detailed previously (14).
# [2] = system: Balb-C mice immunized with ApoH; assay: Autoantibodies in Balb-C mice immunized with ApoH (induced APS model); assay type: in vivo, mouse; conditions: 9 per group
# Method: Similar antibody assays were performed with the sera of Balb-C mice (9 per group) immunized with ApoH 10 μg in complete Freund's adjuvant with boosts given 2 and 6 weeks later in incomplete adjuvant.
# [3] = Distribution of 3H-FTS in plasma and liver; assay type: in vivo, rat; conditions: 5 mg/Kg
# Method: For each set of experiments, FTS was prepared in chloroform (0.1 M stock solution) and maintained at −70° C. The chloroform was removed from the stock solution by a stream of nitrogen prior to use, and FTS was then dissolved either in DMSO (in vitro experiments) or in ethanol (in vivo experiments). The FTS/DMSO solutions were diluted with DMEM/10% fetal calf serum (FCS) to yield a 100×drug stock solution containing 10% DMSO. A portion of this solution was applied to the cells at a dilution of 1:100. The FTS/ethanol solution was alkalinized by the addition of 1N NaOH, then diluted with phosphate-buffered saline (PBS) to obtain a solution of 1.0 mg FTS/ml (pH 8.0, 0.5% ethanol). This solution (1-1.5 ml per rat) was used in the in vivo experiments. In a separate set of experiments, the distribution of FTS in the plasma and in the liver was assayed by the use of 3H -FTS (12.5 ci/mmole, ARC, St. Louis Mo.). […] The estimated concentration FTS in the liver at peak times (20 to 60 min) was 29 μM. Drug levels in the liver declined thereafter to the level of 0.5 μM at 24 h.
# MRL/lpr mice [4] = assay: Autoantibody levels in MRL mice after 2 months FTS (Example 4, ELISA); assay type: in vivo, mouse; conditions: FTS 5 mg/kg 5 days per week
# Method: Two models of the antiphospholipid syndrome were compared. The MRL/lpr mouse, which is a […] model due to a mutaion in the Fas gene, and Balb-C mice immunized with ApoH (β2 glucoprotein 1), which is an induced model. The effect of 2 months FTS (5 days per week, 5 mg/kg) treatment on autoantibody levels in MRL mice (age 10 weeks to 18 weeks) is presented in FIG. 14. The levels of autoantibodies were measured at age 18 weeks by routine ELISA assays (repeated measures ANOVA, p=0.016). […] Anti-ApoH and anti-dsDNA were the major autoantibody groups found. Significant, but lower levels of autoantibodies to phospholipids and single stranded DNA were found in the MRL/lpr mice compared to the MLR/++ controls.
# MRL/lpr mice [5] = assay: Grip strength test (hang time) in MRL mice; assay type: in vivo, mouse
# Method: The four groups of mice were examined weekly using the grip strength test. Muscle strength was measured by the number of seconds the mouse was able to hang suspended on a stationary bar. A neurologically normal mouse is able to remain suspended (hang time) for 30 seconds or longer (17).
# [6] = system: TAA-induced liver cirrhosis in Wistar rats; assay: Thioacetamide (TAA)-induced liver cirrhosis in rats, liver histopathology; assay type: in vivo, rat
# Method: Liver cirrhosis was induced in rats by intraperitoneal (i.p.) administration of TAA 200 mg/kg twice weekly for 12 weeks, as previously described (1, 2).
# The FTS was dissolved in PBS and administered i.p. 3 times a week to rats according to their assigned groups. Four groups containing 6 rats each were treated as follows. One group received TAA 200 mg/kg i.p. twice a week and i.p. injections of PBS 3 days a week for 12 weeks (cirrhotic controls for the FTS-treated groups). A second group received TAA for 12 weeks and FTS 5 mg/kg, 3 times a week. […] The two control groups consisted of one that received PBS injections without TAA for 12 weeks (normal controls) and a group of 5 rats that received only FTS 5 mg/kg i.p. for 12 weeks to monitor the appearance of adverse effects.
# The rats were sacrificed at the completion of the treatment protocols. Their livers were removed and midsections of the left lobes of the livers were processed for light microscopy. This processing consisted of fixing the specimens in a 5% neutral formol solution, embedding the specimens in paraffin, making sections of 5 μm thickness, and staining the sections with hematoxylin and eosin. Reticulin stain was performed to enhance the visualization of the extent and distribution of liver fibrosis. The tissue slices were scanned and scored by two expert pathologists who were not aware of the sample source. The degree of inflammation and fibrosis was expressed as the mean of 10 different fields in each slide that had been classified on a scale of 0-3 according to Muller, et al(3).
# [7] = MRL/lpr mice, age 10 to 18 weeks
# [8] = FTS 5 mg/kg alone, 12 weeks, no TAA
# [9] = TAA + FTS 5 mg/kg 3 times/week for 12 weeks
smiles,measurement,setting,value
"CC(C)=CCC/C(C)=C/CC/C(C)=C/CSc1ccccc1C(=O)O [FTS, farnesyl thiosalicylic acid]",open field: time spent in the center,MRL/lpr mice [1],significant effect on the time spent in the center
same,open field: total distance covered,MRL/lpr mice [1],no effect on the total distance covered
same,amount of insoluble (P100) Ras,Ras; FTS 12.5 μM,84±9.8%
same,amount of insoluble (P100) Ras,Ras; FTS 50μM as printed,52±16%
same,levels of soluble (S100) Ras,Ras; FTS 12.5 and 25 μM,no concomitant observable change
same,"anti-ApoH, anti-ds DNA and anti-phosphatidyl-ethanolamine levels",[2],significant effect of FTS treatment
same,estimated concentration of FTS in the liver at peak times,[3],29 µM
same,"peak liver levels, % of the injected dose",[3],1.75%
same,"peak plasma levels, % of the injected dose",[3],10.7%
same,peak times in the liver,[3],20 to 60 min
same,concentration at 24 h,"[3]; Wistar, rat, liver, other: injected (type of injection not given), read-out: drug level in the liver at 24 h",500 nM
same,levels of autoantibodies to phospholipids and single stranded DNA (minor antibodies),MRL/lpr mice [4],did not lower significantly
same,levels of anti-ApoH autoantibodies,MRL/lpr mice [4]; [7],Significantly lower levels
same,levels of anti-double stranded DNA (dsDNA) autoantibodies,MRL/lpr mice [4]; [7],Significantly lower levels
same,grip strength (hang time on a horizontal bar),MRL/lpr mice [5]; MRL/++ mice,trend for FTS to impair performance
same,grip strength (hang time on a horizontal bar),"MRL/lpr mice [5]; MRL/lpr mice, 12-17 weeks of age",significantly impaired in this test from week 14 compared to the FTS-treated group; also recorded: normalized
same,Fibrotic septa (0-3),[6]; [8],0
same,Nodule formation (0-3),[6]; [8],0
same,Fibrotic septa (0-3),[6]; [9],0.9±0.5
same,Nodule formation (0-3),[6]; [9],0.7 ± 0.6
